Each structure is given as a SMILES string. Where two headings read alike, the source gives them in different places.

One may read the Ki as the equilibrium dissociation constant of an inhibitor or competing ligand from its target. One may read the Kd as a measure of binding affinity in units of concentration.

The target in data set [1] is T1, α-syn fibrils (Homo sapiens, UniProt P37840).
T1 construct: made in house; host or cells: Escherichia coli BL21(DE3)
The data set is described as follows: Inhibition of thioflavin T binding to α-syn fibrils (fluorescence competition), Ki determination. On the procedure:
(§1) Wild-type α-syn and Aβ1-42 were expressed in the Escherichia coli strain BL21(DE3) (Stratagene, La Jolla, CA, USA) and purified as described. […] For the Aβ1-42 peptide, the concentration was determined by a fluorometric method using the reactive compound fluorescamine (Sigma, San Jose, CA, USA) that reacts with primary amino groups to form a fluorescent product. The human Tau protein (isoform h2N4RTau) was expressed in the pET11d vector in the Escherichia coli strain BL21(DE3) (Stratagene, La Jolla, CA, USA) and purified as described.
(§2) For assembly into fibrils, α-syn was incubated in 50 mM Tris-HCl, pH 7.5, 150 mM KCl at 37 °C under continuous shaking for 4 days. Lyophilized Aβ1-42 was dissolved in 1,1,1,3,3,3-hexafluoro-2-propanol (HFIP) at a concentration of 0.2 mg/mL and incubated for 24 h at 37 °C to achieve complete solubilization. HFIP was evaporated under a nitrogen stream to obtain a dry film. To start assembly into fibrils, the dry peptide was resuspended in PBS pH 7.4, 10% (v/v) DMSO and incubated at 37 °C without shaking for 3 days. The Tau protein was assembled in fibrils in a PBS buffer containing 1 mM of DTT in the presence of 1/12 heparin (v/v) at 37 °C under shaking. […] Protein fibrils were systematically examined by transmission electron microscopy (TEM) in a Jeol 1400 transmission electron microscope following adsorption onto carbon-coated 200 mesh grids and negative staining with 1% uranyl acetate. The images were recorded with a Gatan Orius CCD camera (Gatan, Pleasanton, CA, USA). Finally, the percentage of α-syn or Aβ1-42 aggregated into fibrils was assessed by pelleting fibrils at 40,000× g for 20 min and by determining the concentration of soluble protein/peptide remaining in the supernatant.
(§3) The samples were incubated for 1 h at room temperature to achieve complete equilibration.

Data set [2] has as its target T2, Aβ1-42 fibrils (Homo sapiens, UniProt P05067).
T2 construct: Wild-type α-syn and Aβ1-42 were expressed; made in house; host or cells: Escherichia coli BL21(DE3)
The data set is described as follows: Inhibition of thioflavin T binding to Aβ1-42 fibrils (fluorescence competition), Ki determination. To be noted: calculated from IC50, competition with ThT 500 nM, fibrils 500 nM, mean ± SD of 3 experiments; read-out: Ki Aβ. How it is done:
as §1, §2, §3

For data set [3], the target named is T3, Tau fibrils (isoform h2N4RTau) (Homo sapiens, UniProt P10636).
T3 construct: made in house; host or cells: Escherichia coli BL21(DE3), pET11d vector
T3 sequence (P10636 1-441 isoform P10636-8): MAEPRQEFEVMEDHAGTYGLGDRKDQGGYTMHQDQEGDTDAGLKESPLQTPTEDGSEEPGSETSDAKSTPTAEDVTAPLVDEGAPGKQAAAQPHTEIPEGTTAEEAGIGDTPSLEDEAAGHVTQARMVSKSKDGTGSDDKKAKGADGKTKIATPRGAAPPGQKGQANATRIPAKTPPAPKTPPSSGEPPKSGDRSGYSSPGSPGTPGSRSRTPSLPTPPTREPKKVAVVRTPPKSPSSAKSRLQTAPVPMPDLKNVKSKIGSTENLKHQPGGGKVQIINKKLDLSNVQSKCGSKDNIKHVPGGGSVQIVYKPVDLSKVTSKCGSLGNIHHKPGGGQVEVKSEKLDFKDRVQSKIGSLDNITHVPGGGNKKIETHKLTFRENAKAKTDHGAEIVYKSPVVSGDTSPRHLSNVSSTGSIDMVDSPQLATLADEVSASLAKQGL
The data set is described as follows: Inhibition of thioflavin T binding to Tau fibrils (fluorescence competition), Ki determination. To be noted: calculated from IC50, competition with ThT 500 nM, fibrils 200 nM, mean ± SD of 3 experiments. On the procedure: as §1, §2, §3

Data set [4] has as its target T1, α-syn fibrils. The following applies: cited from earlier work.
For data set [5], the target named is T1, α-syn fibrils. The data set can be described thus: Dynamic PET imaging and ex vivo brain radioactivity in rats with α-syn fibrils implanted in the right striatum. The following applies: Wistar rat. From the text: The next step in the characterization of our new PET tracer was to evaluate its ability to bind in vivo to α-syn fibrils. For this aim, we performed a simple preliminary imaging experiment in which the same α-syn fibrils as those used in in vitro experiments were surgically and unilaterally implanted in the brains of two adult Wistar rats. The accumulation of [^18F]45 after intravenous (i.v.) injection was compared, in each animal, between the implanted and intact non-implanted side. The fibrils were administered by stereotaxic injection into the right striatum, [^18F]45 was i.v. injected 1 day later, and image acquisition began at the time of injection using a microPET eXplore Vista (GE Healthcare, Buc, France)/CT system during 3 h. PET images were reconstructed and analyzed in three regions of interest, i.e., the left striatum without fibrils (C-ST), the right striatum with fibrils (I-ST), and the cerebellum (CE). At the end of imaging acquisition, each rat was sacrificed, and brain regions were removed, weighed, and their radioactivity measured.
PET imaging experiments were performed with [^18F]45 on two adult male Wistar rats weighing 250–300 g (Janvier, Le Genest-Saint-Isle, France). The animals were housed in a temperature (23 °C) and humidity (43%) controlled environment under a 12-h light-dark cycle with food and water available ad libitum, and experimental procedures were conducted in accordance with the requirements of the European Community Council Directive 2010/63/EU for the care of laboratory animals and with the authorization of the Regional Ethical Committee (Authorization N°2012-03-1).
The rats were scanned one hour after receiving an intra-cerebral administration of α-syn. They were anesthetized with isoflurane (4% in O2, 500 mL/min, Baxter, France), placed on a stereotaxic frame (Stoelting, Phymep, Paris, France) and maintained under isoflurane 2.5% (500 mL/min) during surgery. Body temperature was monitored and kept at 37 °C. Fibrils of α-syn were prepared as described above (solution of 10 mg/mL in PBS). This solution was administered in two sites of the right striatum of each rat using a 25 μL Hamilton Gastight syringe (Hamilton, Massy, France) with a 30-gauge needle (Phymep, Paris, France) connected to a perfusion system. […]
For the PET experiment, each rat was anesthetized with isoflurane (Baxter, Guyancourt, France), at 4–5% in O2 for induction and then 1.5–2% during scanning, and received an i.v. bolus injection of 42–46 MBq of [^18F]45 (molar activity 99.69 GBq/µmol) into the tail vein. […] The quantification of the tracer uptake was extracted from the last 6 120-s frames corresponding to 49–61 min of acquisition after tracer injection. […] PET images were reconstructed and analyzed using PMOD (3.403, PMOD Technologies, Zurich, Switzerland). […]

Data set [6] has as its target T1, α-syn fibrils. The data set is described as follows: Direct fluorescence titration on α-syn fibrils: Kd and Bmax. In kind it is binding. To be noted: direct assay on fibrils, mean ± SD of 3 experiments. An excerpt: (§4) In view of the interesting properties of compounds 33–39, we decided to switch to azaindole structures and to study the impact of the position of the nitrogen atom in the 6-membered ring on binding to fibrils. At this step we measured, in addition to the Ki values, the direct binding of each compound to fibrils through the fluorescence in the fraction bound to fibrils, which allowed us to determine the affinity values (Kd, Table 1). […] We therefore prepared a fluorinated derivative of compound 43, i.e., 45.
(§5) Fresh solutions of each tested compound (2.5 mM in DMSO) were diluted in PBS pH 7.4 at concentrations ranging from 0.5 nM to 5 µM in the presence or absence of α-syn, Aβ1-42, or Tau fibrils (200 nM, 500 nM, or 200 nM, respectively) in a final volume of 2 mL. After 1 h incubation at room temperature, the binding of each compound to α-syn, Aβ1-42, or Tau fibrils was assessed by fluorescence measurements using the appropriate excitation/emission wavelengths (i.e., those yielding the highest fluorescence ratio between fibril-bound and free compound). For any given concentration of compound added to the fibrils, the concentrations of compound bound to the fibrils and free in solution were determined on the basis of the measured fluorescence. Since at each point of the titration: Fm = FB × B + FF × (T − B) where Fm is the measured fluorescence of the compound in the presence of fibrils at a given compound concentration T, FB is the specific molar fluorescence of the bound compound, FF is the specific molar fluorescence of the free compound, and B is the concentration of compound bound to the fibrils at any point of the titration. FF was determined by measuring the fluorescence of known compound concentrations in the absence of fibrils. FB was determined by measuring the maximum fluorescence of known compound concentrations upon saturation with α-syn, Aβ1-42, or Tau fibrils.
(§6) Therefore, at each point of the titration, the concentration of bound compound B could be determined and was B = (Fm − FF × T)/FB − FF. The B values thus determined versus the respective concentrations of free compound were analyzed by fitting to the Michaelis-Menten equation.

Data set [7] has as its target T2, Aβ1-42 fibrils. The data set is described as follows: Direct fluorescence titration on Aβ1-42 fibrils: Kd and Bmax. In kind it is binding. To be noted: direct assay on fibrils, mean ± SD of 3 experiments; read-out: Kd Aβ.
Text: as §4, §5, §6

In data set [8] the target is T3, Tau fibrils (isoform h2N4RTau). The data set can be described thus: Direct fluorescence titration on Tau fibrils: Kd and Bmax. In kind it is binding. To be noted: direct assay on fibrils, mean ± SD of 3 experiments.
Text: as §4, §5, §6

In data set [9] the target is Aβ fibrils. To be noted: cited from earlier work.
The mark [10] stands for this setting: calculated from IC50, competition with ThT 500 nM, fibrils 200 nM, mean ± SD of 3 experiments.

T2 sequence (P05067 672-713): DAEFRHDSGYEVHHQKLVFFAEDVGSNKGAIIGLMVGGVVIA

Take `Cc1ccc(C#Cc2cc3ccccc3[nH]2)cc1` [Compound 32]: the Ki in data set [1] was more than 100 nM; in data set [2], 37.9 ± 13 nM; in data set [3] it was 13.1 ± 2 nM.

With `CN([11CH3])c1ccc(-c2cc(-c3ccnc(Br)c3)[nH]n2)cc1` [[^11C]MODAG-001], the “better affinity for α-syn as compared to Aβ and tau fibrils” value in data set [4] (in vitro) is reported as “around 20 times”.

For the molecule `CN(C)c1ccc(C#Cc2cc3ccccc3[nH]2)cc1` [Compound 38], the Ki was 36 ± 7 nM in [1], 64.4 ± 40 nM in data set [2] and 27.6 ± 3 nM in data set [3].

For the molecule `COc1ccc2[nH]c(C#Cc3ccc(N(C)C)cc3)cc2c1` [Compound 39], the figures for the Ki in data set [1] and in data set [3] were 21.7 ± 6 nM and 12.7 ± 1 nM, respectively.

For the molecule `Nc1cccc(C#Cc2cc3ccccc3[nH]2)c1` [Compound 36], the Ki in data set [1] was more than 100 nM; in data set [2], 15.3 ± 7 nM; in data set [3], 7.2 ± 1 nM.

Turning to `CN(CC[18F])c1ccc(C#Cc2cc3cccnc3[nH]2)cc1` [[^18F]45], the “radioactivity accumulation in the three brain regions (CE, I-ST, C-ST) at the end of imaging” value in [5] (ex vivo γ-counting after PET, n = 2) is on record as “identical radioactivity accumulation”. In [5] (i.v. 42–46 MBq, dynamic PET 3 h), the “ability to cross the blood–brain barrier” value is given as “able to cross the blood–brain barrier”. Besides, the “brain uptake kinetics (time-activity curves)” value in data set [5] (i.v. 42–46 MBq, dynamic PET 3 h, CE, I-ST, C-ST) was “slow uptake and almost no washout”. Further, the “specificity of brain uptake / in vivo binding to implanted α-syn fibrils” value in data set [5] (α-syn fibrils in right striatum, i.v. 42–46 MBq) is given as “non-specific uptake was observed”.

For the molecule `COc1ccc(C#Cc2cc3ccccc3[nH]2)cc1` [Compound 34], the Ki in data set [1] was 96.7 ± 14 nM; in data set [2], 68.9 ± 14 nM; in [3], 33.1 ± 7 nM.

Consider `CNc1ccc(C#Cc2cc3ccccc3[nH]2)cc1` [Compound 37], for which the values for the Ki in data set [1], in data set [2] and in [3] were 47.8 ± 9 nM, 6.6 ± 2 nM and 17.2 ± 3 nM, respectively.

Turning to `CN(C)c1ccc(C#Cc2cc3ncccc3[nH]2)cc1` [Compound 41], the values for the Ki in data set [1] (setting [10]), in data set [2] and in [3] were 26 ± 16 nM, 21.3 ± 7 nM and 12 ± 1 nM, respectively. Also, the Kd was found to be 3.25 ± 0.2 nM in data set [6], 2.9 ± 2 nM in data set [7] and 0.13 ± 0.05 nM in data set [8].

Consider `C(#Cc1cc2ccccc2[nH]1)c1ccccc1` [Compound 31], for which the Ki was more than 100 nM in [1], 68.9 ± 30 nM in data set [2] and 19.6 ± 2 nM in data set [3].

As for `CN(C)c1ccc(C#Cc2cc3cnccc3[nH]2)cc1` [Compound 44], the figures for the Ki in [1] and in [2] were 26 ± 16 nM and 21.3 ± 7 nM, respectively. The Kd in [6] came out at 1 ± 0.5 nM; in data set [7], 3.6 ± 2 nM; in [8] it was 2.4 ± 0.9 nM.

For `CN(C)c1ccc(C#Cc2cc3cc(OCCF)ccc3[nH]2)cc1` [Compound 40], the Ki in data set [1] was more than 100 nM; in data set [2], 10.1 ± 5 nM; in data set [3] it was 15.8 ± 3 nM.

Regarding `Nc1ccc(C#Cc2cc3ccccc3[nH]2)cc1` [Compound 35], the Ki in data set [1] was 40.4 ± 6 nM; in data set [2], 26.2 ± 11 nM; in data set [3], 123 ± 28 nM.

Regarding `CCc1ccc(C#Cc2cc3ccccc3[nH]2)cc1` [Compound 33], the Ki in data set [1] was 35.9 ± 5 nM; in data set [2], 3.3 ± 1 nM; in [3], 32.9 ± 8 nM.

`CN(c1ccc(/C=C/c2nc3ccccc3o2)cc1)S(=O)(=O)c1ccccc1[18F]` [[^18F]2FBox]: the Kd in data set [4] (in vitro, read-out: Kd for α-syn fibrils) is 3.3 nM; in data set [9] (in vitro, read-out: Kd for Aβ), 145 nM.

With `CN(C)c1ccc(C#Cc2cc3ccncc3[nH]2)cc1` [Compound 42], the Ki in data set [1] (setting [10]) is 28.7 ± 8 nM; in data set [2], 91.5 ± 11 nM; in [3], 8.4 ± 1 nM. Also, the Kd in [6] is 1.4 ± 1 nM; in data set [7], 5.2 ± 3 nM; in data set [8], 0.49 ± 0.2 nM.

In the case of `COc1cccc2ccc(/C=N/N=C/c3ccc4cccc(OCC[18F])c4n3)nc12` [[^18F]BQ2], the Ki in data set [4] is approximately 10 nM. In data set [9] (compared with Ki for α-syn), the “Ki for Aβ” value is on record as “same Ki for Aβ”.
